Six molecules from patent publication US10988737B2, “Clinical gene signature-based human cell culture model and uses thereof” (priority 2015, dated 2021) can be followed below.

“Also recorded” adds a separate entry of the source.

Experiment [1] concerns PLS/HCC high risk genes in HBV-infected HepG2-NTCP cells. Briefly: Epigenetic inhibitors: 32-gene PLS/HCC risk signature in HBV-infected HepG2-NTCP cells. It counts as cell-based. Particulars: only in HBV infected cells; C646 10 μM. As for the experimental part: (§1) HBV infection was assessed at day 10 post-infection by qRT-PCR quantification of HBV pregenomic RNA (pgRNA) as described in (Verrier et al., Hepatology, 2015, 63: 35-48).
(§2) Transcriptional analyses. Ten days after HCV Jc1 and HBV infection or ethanol exposure, cultures were lysed using TRI-reagent (MRC) and RNA purified using the Directzol mini kit (Zymo Research). Gene expression profiling was performed using 250-500 ng total RNA by using either NCOUNTER Digital Analyzer system (NanoString) or high throughput qRT-PCR Biomark HD (Baker, Nature Meth., 2012, 9: 541-544) […]. Induction or suppression of HCC risk signature was determined by Gene Set Enrichment Analysis (GSEA), implemented in GenePattern genomic analysis toolkits.

A further experiment concerns HCV Jc1. Briefly: HCV viral load in HCV Jc1-infected Huh7.5.1dif cells (qRT-PCR of intracellular HCV RNA). The format is cell-based. Conditions: for effect on HCV viral load: HCV-infected Huh7.5.1dif cells, at the concentrations that suppress the signature. As for the experimental part:
HCV Infection of Huh7.5.1^dif cells. Cell culture-derived HCVcc Jc1 (genotype 2a/2a) (Pietschmann et al., PNAS USA, 2006, 103: 7408-7413) were generated in Huh7.5.1 cells as previously described (Wakita et al., Nat. Med., 2005, 11: 791-796). HCV Jc1E2^FLAG was purified using anti-FLAG M2 affinity gel (Sigma-Aldrich, St.Louis, Mo., USA) as described (Merz et al., J. Biol. Chem., 2011, 286: 3018-3032). HCVcc infectivity was determined by calculating the 50% tissue culture infectious doses (TCID50) as previously described (Lindenbach et al., Science, 2005, 309: 623-626). Huh7.5.1^dif cells were infected with HCV Jc1 or HCV Jc1E2^FLAG. Cell culture supernatants from mock-electroporated cells or 100 μg/mL of FLAG peptide were used for control experiments. HCV infection was assessed by qRT-PCR of intracellular HCV RNA (Xiao et al., PLoS Pathog., 2014, 10: e1004128) as well as immunostaining using HCV E2-specific AP33 antibody as previously described (Krieger et al., Hepatology, 2010, 51: 1144-1157).
On the technique in general: In qPCR the cycle at which signal appears reflects the starting amount.

Experiment [2] has as its system HCC risk signature in HCV Jc1-infected Huh7.5.1^dif cells. Description: HCC risk signature in HCV Jc1-infected Huh7.5.1dif cells after antiviral or EGFR/MAPK pathway inhibitor treatment. It counts as cell-based, human. Conditions: three days treatment from day 7 post-infection.
Protocol: HCV Infection of Huh7.5.1^dif cells. […] Huh7.5.1^dif cells were infected with HCV Jc1 or HCV Jc1E2^FLAG. […] HCV infection was assessed by qRT-PCR of intracellular HCV RNA (Xiao et al., PLoS Pathog., 2014, 10: e1004128) as well as immunostaining using HCV E2-specific AP33 antibody as previously described (Krieger et al., Hepatology, 2010, 51: 1144-1157).
Transcriptional Analyses. Liver cells were lysed in TRI-reagent (Molecular Research Center; Cincinnati, Ohio, USA), and RNA was purified using Direct-zol RNA MiniPrep (Zymo Research, Irvine, Calif., USA) according to manufacturer's instructions. RNA quantity and RNA quality were assessed using NanoDrop (Thermo Scientific, Waltham, Mass., USA) and Bioanalyzer 2100 (IIlumina, San Diego, Calif., USA) with a quality cut-off of RNA Integrity Number >8. […] Gene expression profiling was performed using 250-500 ng total RNA by using either NCOUNTER Digital Analyzer system (NanoString) or the HumanHT-12 beadarray (Illumina, San Diego, Calif., USA). HCC high risk gene expression was analyzed by qRT-PCR using specific TaqMan Gene Expression Assays (Life Technologies, Carlsbad, Calif., USA) or the ANXA3 and GPX2 primer sets previously described (Pan et al., Stem Cells, 2015, 33: 354-366 and Brault et al., Gut, 2014, 65: 44-54, respectively). The expression of GAPDH mRNA was analyzed as a reference gene using a specific TaqMan Gene Expression Assay (Life Technologies, Carlsbad, Calif., USA) or the RT2 qPCR Primer Assay (Qiagen, Hilden, Germany). Relative gene expression level was calculated by the ΔΔCt method as previously described (Schmittgen et al., Nat. Protoc., 2008, 3: 1101-1108).
Bioinformatics. Induction or suppression of HCC risk signature in HumanHT-12 beadarray (Illumina, San Diego, Calif., USA) data was determined as previously reported by using Nearest Template Prediction algorithm and Gene Set Enrichment Analysis (GSEA), implemented in GenePattern genomic analysis toolkits (Subramanian et al., PNAS USA, 2005, 102: 15545-15550; Hoshida, PLoS One, 2010, 5: e15543; Reich et al., Nat. Genet., 2006, 38: 500-501). Molecular pathway deregulations were determined in Molecular Signature Database (MSigDB, ver.4.0) (Liberzon et al., Bioinformatics, 2011, 27: 1739-1740) using GSEA (Subramanian et al., PNAS USA, 2005, 102: 15545-15550).
The test system of experiment [3] is HCC high-risk genes in human fibrotic liver tissue. Briefly: Organotypic ex vivo culture of surgically resected human fibrotic liver tissue slices, PLS/HCC risk signature by GSEA. Conditions: erlotinib 5 μM, pioglitazone 10 μM. The format is cell-based. How it is done: Liver Slices. Fresh liver tissue sections (300 μm-thick) were prepared from surgically resected fibrotic livers from HCC patients using Krumdieck Tissue Slicer MD6000 (Alabama Research and Development, Munford, Ala., USA).
Transcriptional Analyses. Liver cells were lysed in TRI-reagent (Molecular Research Center; Cincinnati, Ohio, USA), and RNA was purified using Direct-zol RNA MiniPrep (Zymo Research, Irvine, Calif., USA) according to manufacturer's instructions. RNA quantity and RNA quality were assessed using NanoDrop (Thermo Scientific, Waltham, Mass., USA) and Bioanalyzer 2100 ([…]) with a quality cut-off of RNA Integrity Number >8. […] HCC high risk gene expression was analyzed by qRT-PCR using specific TaqMan Gene Expression Assays (Life Technologies, Carlsbad, Calif., USA) or the ANXA3 and GPX2 primer sets previously described (Pan et al., Stem Cells, 2015, 33: 354-366 and Brault et al., Gut, 2014, 65: 44-54, respectively). The expression of GAPDH mRNA was analyzed as a reference gene using a specific TaqMan Gene Expression Assay (Life Technologies, Carlsbad, Calif., USA) or the RT2 qPCR Primer Assay (Qiagen, Hilden, Germany). Relative gene expression level was calculated by the ΔΔCt method as previously described (Schmittgen et al., Nat. Protoc., 2008, 3: 1101-1108). […]

The next experiment deals with ERK1/2. Briefly: Proteome Profiler Human Phospho-kinase Array in HCV-infected liver cells. Particulars: low inhibitor concentrations. It counts as cell-based. As for the experimental part: Proteomic Analyses. For proteomic analyses, Huh7.5.1^dif cells that had undergone DMSO-mediated differentiation, were infected with HCV Jc1E2^FLAG (TCID50=10^7/mL) as described above. On day 7, receptor tyrosine kinase (RTK) phosphorylation was assessed in cell lysates using the Human Phospho-RTK Array Kit as previously described (Lupberger et al., Nat. Med., 2011, 17: 589-595; and Zona et al., Cell Host Microbe, 2013, 13: 302-313). The effect of MAPK inhibitors on signaling was confirmed using the Proteome Profiler Human Phospho-kinase Array according to manufacturer's instructions (R&D Systems). Amounts of phospho-proteins were assessed using a horseradish peroxidase-conjugated pan-phospho-tyrosine-specific antibody (R&D Systems, Minneapolis, Minn., USA) followed by chemiluminescence detection (GE Healthcare, Cleveland, Ohio, USA) according to manufacturer's instructions. The relative dot-blot density of the phosphorylated proteins in HCV Jc1E2^FLAG infected samples compared to non-infected controls was quantified using Image J software (NIH) by elliptical selection of individual dots and measuring standard deviation and integrated density.

Experiment [4] deals with PLS/HCC high risk genes in HCV-infected or ethanol exposed Huh7.5.1^dif cells or HBV-infected HepG2-NTCP cells. Description: Epigenetic inhibitors: 32-gene PLS/HCC risk signature in infected or ethanol-treated liver cells. Conditions: iBET 0.05 μM, WDR5-0103 100 μM. It counts as cell-based, human. How it is done:
HCV infection was assessed at day 10 by qRT-PCR of intracellular RNA as described (Xiao et al., PLoS pathogens. 2014, 10(5): e1004128).
as §1
Fresh medium containing ethanol and antibodies was replenished daily (Ye et al., Drug Alcohol Depend., 2010, 112: 107-116).
as §2

With `CC1=NN(c2ccc(C(=O)O)cc2)C(=O)/C1=C\c1ccc(-c2cc(C)c(C)cc2[N+](=O)[O-])o1` [C646], in experiment [1], the “PLS/HCC high risk genes” value is “suppressed”.

Take `C#Cc1cccc(Nc2ncnc3cc(OCCOC)c(OCCOC)cc23)c1` [Erlotinib]: the “effect on HCV viral load” value with HCV Jc1 is recorded as “did not modify”. In addition, the “HCC high-risk gene expression” value in experiment [2] is reported as “suppressed”. Also, in experiment [3], the “PLS / HCC high-risk genes in ex vivo liver tissue” value is listed as “effectively suppress; also recorded: reverted”.

In the case of `Nc1[nH]nc2nnc(-c3c(-c4ccccc4)nn4ccccc34)cc12` [Fr180204], the “effect on HCV viral load” value in the experiment on HCV Jc1 is reported as “absent effects”. Further, in experiment [2], the “HCC high-risk gene expression” value is given as “suppressed”. In addition, the “ERK1/2 phosphorylation (virus-induced MAPK signaling)” value with ERK1/2 is “reduced”.

As to `COC(=O)c1ccc(N2CCN(C)CC2)c(NC(=O)c2cccc(OC)c2)c1` [WDR5-0103], in experiment [4], the “PLS/HCC high risk gene expression” value is “suppressed”.

Regarding Interferon-alpha 2a, in the experiment with HCV Jc1 (HCV Jc1-infected Huh7.5.1dif cells, three days treatment from day 7, 10 IU/mL interferon-alpha 2a or 1 nM daclatasvir + 1 μM sofosbuvir), the “decrease of viral load” value is “about 100 fold”. Moreover, in experiment [2], the “HCC high-risk gene expression” value is recorded as “partial suppression” and the “HCC low-risk gene expression” value is recorded as “restoration”.

For the molecule iBET, the “PLS/HCC high risk gene expression” value in experiment [4] is on record as “suppressed”.
